Columns and labels:
AZD1208 = compound: N[C@@H]1CCCN(c2c(/C=C3\SC(=O)NC3=O)cccc2-c2ccccc2)C1 [AZD1208]; experiment: relative viability (nuclei count vs DMSO), 5 days (fraction); higher = more cells survive
Outline: (§1)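 Viability was defined as treated-well nuclei divided by vehicle-well nuclei, with the median taken over replicate plates. Cells from lung cancer lines sat overnight at 37 °C in 1536-well plates, received five √10-spaced library-drug doses by pinning on vehicle-anchored plates, and grew 5 days without medium change before one-step fixation, permeabilisation and Hoechst staining, 4× imaging and MetaXpress nuclear counts. Only plates with control CV under 25% and at least one doubling were kept.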

XMD14-99 = compound: CN1CCN(CC1)C2=CC(=C(C=C2)NC3=NC(=C(S3)C(=O)C4=C(C=CC=C4Cl)Cl)N)OC [XMD14-99]; experiment: as above
Outline: as §1

## PC-14
AZD1208; 0.08 µM
  relative viability: 1.07
AZD1208; 0.253 µM
  relative viability: 1.11
AZD1208; 0.8 µM
  relative viability: 0.923
AZD1208; 2.53 µM
  relative viability: 0.996
AZD1208; 8 µM
  relative viability: 0.953
XMD14-99; 0.08 µM
  relative viability: 1.02
XMD14-99; 0.8 µM
  relative viability: 1.01
XMD14-99; 2.53 µM
  relative viability: 0.907
XMD14-99; 8 µM
  relative viability: 0.646

## RERF-LC-KJ
AZD1208; 0.08 µM
  relative viability: 0.998
AZD1208; 0.253 µM
  relative viability: 1.03
AZD1208; 0.8 µM
  relative viability: 0.878
AZD1208; 2.53 µM
  relative viability: 0.935
AZD1208; 8 µM
  relative viability: 0.746
XMD14-99; 0.08 µM
  relative viability: 0.991
XMD14-99; 0.8 µM
  relative viability: 0.938
XMD14-99; 2.53 µM
  relative viability: 0.903
XMD14-99; 8 µM
  relative viability: 0.834

## SK-LU-1
AZD1208; 0.08 µM
  relative viability: 0.988
AZD1208; 0.253 µM
  relative viability: 1.15
AZD1208; 0.8 µM
  relative viability: 0.932
AZD1208; 2.53 µM
  relative viability: 1.05
AZD1208; 8 µM
  relative viability: 0.922
XMD14-99; 0.08 µM
  relative viability: 0.987
XMD14-99; 0.8 µM
  relative viability: 1.04
XMD14-99; 2.53 µM
  relative viability: 0.948
XMD14-99; 8 µM
  relative viability: 0.7

## SK-MES-1
AZD1208; 0.08 µM
  relative viability: 0.979
AZD1208; 0.253 µM
  relative viability: 1.01
AZD1208; 0.8 µM
  relative viability: 0.964
AZD1208; 2.53 µM
  relative viability: 0.943
AZD1208; 8 µM
  relative viability: 0.866
XMD14-99; 0.08 µM
  relative viability: 1.02
XMD14-99; 0.8 µM
  relative viability: 0.994
XMD14-99; 2.53 µM
  relative viability: 0.976
XMD14-99; 8 µM
  relative viability: 0.664

## SW 900
AZD1208; 0.08 µM
  relative viability: 0.837
AZD1208; 0.253 µM
  relative viability: 0.989
AZD1208; 0.8 µM
  relative viability: 0.822
AZD1208; 2.53 µM
  relative viability: 1
AZD1208; 8 µM
  relative viability: 0.799
XMD14-99; 0.08 µM
  relative viability: 0.918
XMD14-99; 0.8 µM
  relative viability: 0.976
XMD14-99; 2.53 µM
  relative viability: 0.753
XMD14-99; 8 µM
  relative viability: 0.66

## SW 1573
AZD1208; 0.08 µM
  relative viability: 0.822
AZD1208; 0.253 µM
  relative viability: 0.899
AZD1208; 0.8 µM
  relative viability: 0.799
AZD1208; 2.53 µM
  relative viability: 0.807
AZD1208; 8 µM
  relative viability: 0.696
XMD14-99; 0.08 µM
  relative viability: 0.964
XMD14-99; 0.8 µM
  relative viability: 0.939
XMD14-99; 2.53 µM
  relative viability: 1
XMD14-99; 8 µM
  relative viability: 0.834
